According to ChEMBL document CHEMBL3046336, “Assessment of the impact of insecticides on Anagrus nilaparvatae (Pang et Wang) (Hymenoptera: Mymanidae), an egg parasitoid of the rice planthopper, Nilaparvata lugens (Hemiptera: Delphacidae)” (Crop Prot, 2008):

Columns and labels:
[1] = Chronic toxicity against female adult Anagrus nilaparvatae in petridish under laboratory conditions assessed as reduction in longetivity compound treated as emulsible concentrate with acetone and Triton X-100 relative to untreated control; design: scale not given: the % may be the effect or the level left
[2] = Acute contact toxicity against adult Anagrus nilaparvatae assessed as dead parasitoid wasps compound treated for 1 hr measured after 8 hr wash-out period
[3] = Acute oral toxicity against female adult Anagrus nilaparvatae in petridish under laboratory conditions assessed as mortality compound treated as emulsible concentrate with acetone and Triton X-100 measured after 1 to 8 hr; details: in vivo
[4] = Chronic toxicity against female adult Anagrus nilaparvatae in petridish under laboratory conditions assessed as reduction in fecundity compound treated as emulsible concentrate with acetone and […] relative to untreated control; design: scale not given: the % may be the effect or the level left
[5] = Acute oral toxicity against female adult Anagrus nilaparvatae in petridish under laboratory conditions assessed as mortality compound treated as emulsible concentrate with acetone and Triton X-100 measured after 8 hr; details: in vivo
[6] = Residual toxicity against compound treated rice leaves-fed adult Anagrus nilaparvatae assessed as mortality measured on day 7 post insecticide treatment to plant; details: in vivo
[7] = Acute oral toxicity against female adult Anagrus nilaparvatae in petridish under laboratory conditions assessed as mortality compound treated as emulsible concentrate with acetone and Triton X-100 measured after 4 hr; details: in vivo
[8] = Acute oral toxicity against female adult Anagrus nilaparvatae in petridish under laboratory conditions assessed as mortality compound treated as emulsible concentrate with acetone and Triton X-100 measured after 2 hr; details: in vivo
[9] = Residual toxicity against compound treated rice leaves-fed adult Anagrus nilaparvatae assessed as mortality measured on day 0 post insecticide treatment to plant; details: in vivo, oral

| SMILES | LC50 [2] [mgAi/L] | mortality at 8 h [5] [%] | mortality at 7 day ([6]; oral) [%] | further results |
| --- | --- | --- | --- | --- |
| O=C(NC(=O)c1c(F)cccc1F)Nc1cc(Cl)c(OC(F)(F)C(F)F)c(Cl)c1 [HEXAFLUMURON] | > 1000 | – | – | Activity [1]: 24%; mortality [3]: 1.3%; Activity [4]: 28% |
| CC[C@H](C)[C@H]1O[C@]2(C=C[C@@H]1C)C[C@@H]1C[C@@H](C/C=C(\C)[C@@H](O[C@H]3C[C@H](OC)[C@@H](O[C@H]4C[C@H](OC)[C@@H](O)[C@H](C)O4)[C@H](C)O3)[C@@H](C)/C=C/C=C3\CO[C@@H]4[C@H](O)C(C)=C[C@@H](C(=O)O1)[C@]34O)O2.CO[C@H]1C[C@H](O[C@H]2[C@H](C)O[C@@H](O[C@@H]3/C(C)=C/C[C@@H]4C[C@@H](C[C@]5(C=C[C@H](C)[C@@H](C(C)C)O5)O4)OC(=O)[C@@H]4C=C(C)[C@@H](O)[C@H]5OC/C(=C\C=C\[C@@H]3C)[C@]54O)C[C@@H]2OC)O[C@@H](C)[C@@H]1O [ABAMECTIN] | 8.499 | – | – | – |
| COP(N)(=O)SC (configuration not stated) [METHAMIDOPHOS] | – | 100 | < 10 | – |
| CCOP(=S)(OCC)Oc1ncn(-c2ccccc2)n1 [TRIAZOPHOS] | 1.253 | 100 | – | mortality at 7 day [6]: 54.6% |
| CN1COCN(Cc2cnc(Cl)s2)/C1=N\[N+](=O)[O-] [THIAMETHOXAM] | 0.52 | – | 66.8 | Activity [7]: Toxic |
| COP(=O)(OC)OC=C(Cl)Cl [DICHLORVOS] | 15.946 | 100 | – | mortality at 2 h [8]: 100% |
| CCOc1ccc([Si](C)(C)CCCc2ccc(F)c(Oc3ccccc3)c2)cc1 [SILAFLUOFEN] | 14.22 | 37.6 | 1.1 | – |
| O=[N+]([O-])NC1=NCCN1Cc1ccc(Cl)nc1 [IMIDACLOPRID] | 0.021 | – | 80.7 | Activity [7]: Toxic; mortality at 0 day [9]: 97.6% |
| CCOP(=S)(OCC)Oc1nc(Cl)c(Cl)cc1Cl [CHLORPYRIFOS] | 0.002 | 100 | < 10 | – |
| O=C(NC(=O)c1c(F)cccc1F)Nc1cc(Cl)c(Oc2ncc(C(F)(F)F)cc2Cl)c(Cl)c1 [CHLORFLUAZURON] | > 1000 | – | – | Activity [1]: 29%; mortality [3]: 4%; Activity [4]: 49% |
| N#Cc1nn(-c2c(Cl)cc(C(F)(F)F)cc2Cl)c(N)c1[S+]([O-])C(F)(F)F (configuration not stated) [FIPRONIL] | 0.18 | 100 | 50 | – |
| CNC(=O)Oc1ccccc1C(C)C [ISOPROCARB] | 1.071 | – | – | Activity [7]: Toxic |
| Cc1cc(C)cc(C(=O)N(NC(=O)c2ccc3c(c2C)OC(C)C3)C(C)(C)C)c1 (configuration not stated) [FUXIAN] | > 1000 | – | – | Activity [1]: 29%; mortality [3]: 1.1%; Activity [4]: 47% |
| CC(C)N1C(=O)N(c2ccccc2)CS/C1=N\C(C)(C)C [BUPROFEZIN] | > 1000 | – | – | mortality [3]: 29.4%; mortality at 0 day [9]: 1.1% |
